The text below walks through data of PubChem BioAssay (NCI).

Some test systems named below: OVCAR-5 ovarian; NCI-H522 lung; SR leukemia; MDA-MB-231 breast; U251 CNS; DU-145 prostate; HT29 colon; BT-549 breast; PC-3 prostate; EKVX NSCLC; SK-OV-3 ovarian; CAKI-1 renal; UACC-257 melanoma; HS 578T breast; A498 renal; SK-MEL-28 melanoma; HCT-15 colon; A549 NSCLC; ACHN renal; SF-295 CNS.
Test in all cases: growth of human tumour cells (NCI), 48 h

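48-hour exposure; five concentrations; linearly interpolated endpoints. Definition used: TGI = concentration required for complete inhibition of growth.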

`CSc1c(C(=O)Nc2ccccc2)c(N)n(N)c(=O)c1C#N`: the TGI in the test with OVCAR-5 ovarian, in the test with NCI-H522 lung, with SR leukemia, in the test on MDA-MB-231 breast, in the test on U251 CNS and with DU-145 prostate was > 100 µM each time. The TGI with HT29 colon, with BT-549 breast, in the test with PC-3 prostate, in the test on EKVX NSCLC, in the test on SK-OV-3 ovarian and in the test with CAKI-1 renal was > 100 µM throughout. Also, the TGI in the test on UACC-257 melanoma, in the test on HS 578T breast, with A498 renal, in the test on SK-MEL-28 melanoma, in the test with HCT-15 colon and in the test with A549 NSCLC was > 100 µM throughout.
On to `CC1(C)N/C(=C\[N+](=O)[O-])C(C)(C)N1O`, for which the TGI with OVCAR-5 ovarian, in the test on NCI-H522 lung, in the test with SR leukemia, in the test on MDA-MB-231 breast, in the test on U251 CNS and in the test on DU-145 prostate was > 10 µM each time. The TGI in the test on HT29 colon, with BT-549 breast, in the test on PC-3 prostate, in the test on EKVX NSCLC, with SK-OV-3 ovarian and in the test with CAKI-1 renal was > 10 µM in each case. For the same compound, the TGI in the test with UACC-257 melanoma, in the test on HS 578T breast, in the test with A498 renal, in the test on SK-MEL-28 melanoma, in the test with HCT-15 colon and with ACHN renal was > 10 µM in each case. The TGI in the test on A549 NSCLC and in the test on SF-295 CNS was > 10 µM in each case.
`Nc1ccccc1CCN1CCN(CCCc2ccccc2)CC1`: the TGI in the test with OVCAR-5 ovarian, with NCI-H522 lung, in the test on SR leukemia, with MDA-MB-231 breast, in the test with U251 CNS and with DU-145 prostate was > 100 µM each time. Besides, the TGI with HT29 colon, in the test with BT-549 breast, in the test on PC-3 prostate, with EKVX NSCLC, with SK-OV-3 ovarian and with CAKI-1 renal was > 100 µM each time. Further, the TGI in the test with UACC-257 melanoma, in the test on HS 578T breast, with A498 renal, in the test on SK-MEL-28 melanoma, with HCT-15 colon and in the test on ACHN renal was > 100 µM each time. Further, the TGI in the test on A549 NSCLC and with SF-295 CNS was > 100 µM each time.
Turning to `COC(=O)[C@@H]1C=C[C@H](OC2OC(COC(C)=O)C(OC(C)=O)C(OC(C)=O)C2OC(C)=O)n2c(=O)n(-c3ccccc3)c(=O)n21` (stereo partly drawn), the TGI in the test with OVCAR-5 ovarian was 12.6 µM; in the test with NCI-H522 lung, 1.07 µM; in the test on SR leukemia, > 24.9 µM; in the test with MDA-MB-231 breast, 8.42 µM; in the test on U251 CNS, 8.33 µM; in the test with DU-145 prostate, 15.7 µM. For the same compound, the TGI with HT29 colon came out at 3.64 µM; with BT-549 breast, 6.26 µM; with PC-3 prostate, 7.67 µM; with EKVX NSCLC it was 11.2 µM; in the test with SK-OV-3 ovarian, 29.4 µM; in the test with CAKI-1 renal it was 2.7 µM. The TGI amounted to 5.07 µM in the test on UACC-257 melanoma; 45.8 µM in the test on HS 578T breast; 20 µM in the test on A498 renal; 5.59 µM in the test on SK-MEL-28 melanoma; 3.85 µM in the test with HCT-15 colon; 3.17 µM in the test on ACHN renal. In addition, the TGI in the test with A549 NSCLC was determined as 30.8 µM; in the test on SF-295 CNS it was 15.5 µM.
As for `COc1ccc2c(c1)/C(=C\c1c(Cl)[nH]c3cc(C)c(OC)cc13)C(=O)N2`, the TGI was determined as 14.1 µM in the test with OVCAR-5 ovarian; 6.78 µM with NCI-H522 lung; 2.58 µM with SR leukemia; 13.7 µM with MDA-MB-231 breast; 5.55 µM in the test with U251 CNS; 5.98 µM in the test on DU-145 prostate. In addition, the TGI in the test on HT29 colon is 7.27 µM; with BT-549 breast it was 7.95 µM; in the test with PC-3 prostate, 8.27 µM; with EKVX NSCLC, 16.5 µM; in the test on SK-OV-3 ovarian, 3.07 µM; in the test with CAKI-1 renal it was 20.4 µM. Moreover, the TGI in the test with UACC-257 melanoma is 20.6 µM; with HS 578T breast, > 50.7 µM; with A498 renal, 20.2 µM; in the test on SK-MEL-28 melanoma it was 29 µM; in the test on HCT-15 colon it was 5.96 µM; with ACHN renal, 17.3 µM. Also, the values for the TGI in the test with A549 NSCLC and in the test with SF-295 CNS were 18.2 µM and 13.4 µM, respectively.
With `O=C1OC(CCCN2CCCCC2)(c2ccccc2)CC12CCCC2` (stereo not drawn), the TGI with OVCAR-5 ovarian, in the test with NCI-H522 lung, in the test on SR leukemia, in the test on MDA-MB-231 breast, in the test with U251 CNS and in the test with DU-145 prostate was > 100 µM in each case. The TGI in the test on HT29 colon was > 92 µM; in the test with BT-549 breast, > 100 µM; with PC-3 prostate, > 100 µM; in the test on EKVX NSCLC, > 100 µM; with SK-OV-3 ovarian it was > 100 µM; in the test on CAKI-1 renal, > 100 µM. Besides, the TGI was 48.7 µM with UACC-257 melanoma; > 100 µM in the test with HS 578T breast; 98.4 µM in the test on A498 renal; 57 µM in the test with SK-MEL-28 melanoma; > 100 µM in the test with HCT-15 colon; > 100 µM in the test with ACHN renal. The TGI in the test on A549 NSCLC and in the test on SF-295 CNS was > 100 µM throughout.
On to `COC(=O)C1Cc2cc3c(cc2C1=O)CCC3` (stereo not drawn), for which the TGI with OVCAR-5 ovarian, in the test with NCI-H522 lung, in the test with SR leukemia, with MDA-MB-231 breast, in the test on U251 CNS and with DU-145 prostate was > 100 µM in each case. The TGI in the test with HT29 colon, with BT-549 breast, in the test with PC-3 prostate, in the test on EKVX NSCLC, in the test on SK-OV-3 ovarian and in the test on CAKI-1 renal was > 100 µM each time. Further, the TGI with UACC-257 melanoma, with HS 578T breast, with A498 renal, in the test with SK-MEL-28 melanoma, in the test on HCT-15 colon and with ACHN renal was > 100 µM throughout. The TGI with A549 NSCLC and with SF-295 CNS was > 100 µM in each case.
